For assay [1], the target named is T1, Dual serine/threonine and tyrosine protein kinase (Homo sapiens) (UniProt Q6XUX3).
T1 sequence (whole entry): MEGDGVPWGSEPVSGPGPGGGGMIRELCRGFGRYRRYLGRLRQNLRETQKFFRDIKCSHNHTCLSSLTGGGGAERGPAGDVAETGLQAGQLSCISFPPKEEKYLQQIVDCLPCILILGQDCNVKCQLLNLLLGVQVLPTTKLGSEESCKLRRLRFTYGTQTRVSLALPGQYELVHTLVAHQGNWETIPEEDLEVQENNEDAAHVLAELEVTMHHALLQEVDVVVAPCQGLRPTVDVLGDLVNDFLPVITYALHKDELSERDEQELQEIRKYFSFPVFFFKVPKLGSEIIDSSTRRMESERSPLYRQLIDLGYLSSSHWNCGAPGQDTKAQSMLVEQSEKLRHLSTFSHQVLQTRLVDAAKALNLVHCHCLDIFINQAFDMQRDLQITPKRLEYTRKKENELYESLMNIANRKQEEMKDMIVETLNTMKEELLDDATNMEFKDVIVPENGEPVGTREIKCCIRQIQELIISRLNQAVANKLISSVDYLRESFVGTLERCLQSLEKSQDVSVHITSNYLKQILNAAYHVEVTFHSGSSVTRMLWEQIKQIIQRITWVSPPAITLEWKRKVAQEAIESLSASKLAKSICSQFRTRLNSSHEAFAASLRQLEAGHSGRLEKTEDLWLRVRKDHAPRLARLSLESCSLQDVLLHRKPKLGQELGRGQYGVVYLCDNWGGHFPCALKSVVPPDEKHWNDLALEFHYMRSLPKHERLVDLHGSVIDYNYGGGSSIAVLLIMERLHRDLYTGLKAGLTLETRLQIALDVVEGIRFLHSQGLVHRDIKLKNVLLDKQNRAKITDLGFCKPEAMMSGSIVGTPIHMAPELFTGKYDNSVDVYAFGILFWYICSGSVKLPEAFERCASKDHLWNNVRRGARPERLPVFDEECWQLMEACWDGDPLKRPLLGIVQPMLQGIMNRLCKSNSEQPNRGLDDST
As to the kind of experiment: Inhibition of human RIPK5 assessed as enzyme activity at 30 uM using MBP as substrate by [gamma-33P]-ATP assay relative to control. The arrangement: scale not given: the % may be the effect or the level left.

In assay [2] the target is T2, Serine/threonine-protein kinase haspin (Homo sapiens) (UniProt Q8TF76).
T2 sequence (whole entry): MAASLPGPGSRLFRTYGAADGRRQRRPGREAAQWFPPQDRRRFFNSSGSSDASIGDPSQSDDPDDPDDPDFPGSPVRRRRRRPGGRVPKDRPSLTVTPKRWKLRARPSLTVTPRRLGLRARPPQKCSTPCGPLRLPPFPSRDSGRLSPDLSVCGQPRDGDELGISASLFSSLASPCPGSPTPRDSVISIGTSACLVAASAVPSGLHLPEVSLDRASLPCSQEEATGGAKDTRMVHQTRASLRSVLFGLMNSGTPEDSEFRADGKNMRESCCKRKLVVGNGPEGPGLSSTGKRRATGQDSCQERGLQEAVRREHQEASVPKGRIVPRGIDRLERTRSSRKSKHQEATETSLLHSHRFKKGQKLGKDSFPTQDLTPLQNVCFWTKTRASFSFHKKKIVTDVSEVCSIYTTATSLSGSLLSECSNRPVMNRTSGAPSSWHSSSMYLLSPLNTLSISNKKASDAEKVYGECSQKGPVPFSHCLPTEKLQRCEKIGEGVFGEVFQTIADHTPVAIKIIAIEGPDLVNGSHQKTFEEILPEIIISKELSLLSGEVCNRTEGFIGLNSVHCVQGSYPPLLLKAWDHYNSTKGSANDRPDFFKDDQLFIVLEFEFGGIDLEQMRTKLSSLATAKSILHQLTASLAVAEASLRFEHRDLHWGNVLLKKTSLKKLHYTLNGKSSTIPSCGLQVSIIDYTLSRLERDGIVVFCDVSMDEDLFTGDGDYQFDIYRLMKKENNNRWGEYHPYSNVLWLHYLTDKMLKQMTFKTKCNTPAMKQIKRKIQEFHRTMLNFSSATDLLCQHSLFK
As to the kind of experiment: Inhibition of human haspin assessed as enzyme activity at 30 uM using Histone H3 as substrate by [gamma-33P]-ATP assay relative to control. The arrangement: scale not given: the % may be the effect or the level left.

Assay [3] concerns the target Mitogen-activated protein kinase 9 (Homo sapiens) (UniProt P45984). As to the kind of experiment: Inhibition of human JNK2 assessed as enzyme activity at 30 uM using ATF2 as substrate by [gamma-33P]-ATP assay relative to control. Set-up: scale not given: the % may be the effect or the level left.
Assay [4] deals with CDK3/Cyclin E (Homo sapiens) (UniProt P24864+Q00526). As to the kind of experiment: Inhibition of human CDK3/cyclin-E assessed as enzyme activity at 30 uM using histone H1 as substrate by [gamma-33P]-ATP assay relative to control. The assay is classed as protein-complex assay. Set-up: scale not given: the % may be the effect or the level left.
The target of assay [5] is Cyclin-dependent kinase 1/cyclin B1 (Homo sapiens) (UniProt P06493+P14635). As to the kind of experiment: Inhibition of human CDK1/cyclinB assessed as enzyme activity at 30 uM using Histone H1 as substrate by [gamma-33P]-ATP assay relative to control. The assay is classed as protein-complex assay. Set-up: scale not given: the % may be the effect or the level left.
Assay [6] concerns the target Serine/threonine-protein kinase 24 (Homo sapiens) (UniProt Q9Y6E0). As to the kind of experiment: Inhibition of human MST3 assessed as enzyme activity at 30 uM using MBP as substrate by [gamma-33P]-ATP assay relative to control. The arrangement: scale not given: the % may be the effect or the level left.
Assay [7] deals with Mus musculus. As to the kind of experiment: Cognition enhancing effect in ICR mouse model of scopolamine-induced memory impairment assessed as spontaneous alteration at 10 mg/kg by Y-maze test (reference value: 45.14%). Format: functional.
Assay [8] concerns the target Protein kinase C alpha type (Homo sapiens) (UniProt P17252). As to the kind of experiment: Inhibition of human PKCalpha assessed as enzyme activity at 30 uM using ERMRPRKRQGSVRRRV as substrate by [gamma-33P]-ATP assay relative to control. Set-up: scale not given: the % may be the effect or the level left.

Molecules are shown by their SMILES.

Consider 1 molecule from ChEMBL document CHEMBL4411276, “Chemistry-oriented synthesis (ChOS) and target deconvolution on neuroprotective effect of a novel scaffold, oxaza spiroquinone” (Eur J Med Chem, 2019).

Consider `O=C1C=CC2(C=C1)OCC(Cc1cc(C(F)(F)F)cc(C(F)(F)F)c1)C(=O)N2c1ccccc1` (stereo not drawn), for which the Activity in assay [1] lay within 58.6 to 59.9%; in assay [2] it was 66.1 to 66.8%; in assay [3] it was 57.8 to 58.8%; in assay [4], 58.5 to 60.2%; in assay [5] it was 45.4 to 46.5%; in assay [6] it was 57.6 to 58.2%. Further, the Activity in assay [7] was 59.62%; in assay [8], 44.8 to 46.5%.
